Each structure is given as a SMILES string.

Format in all cases: physicochemical
Data set [1] can be described thus: pKa of chelating agent (Table 1). To be noted: successive pKa values; for catechin (A)/(B). The text has this: Chelation is a type of bonding of ions and molecules to metal ions. It involves the formation or presence of two or more separate coordinate bonds between a ligand and a metal atom. Without being bound by theory, the stain removal effectiveness of a composition comprising one or more chelating agents may depend at least in part on the ability of the chelating agent(s) to bind to iron, which may be present in some stains, such as fruit or beverage stains. Several factors may impact a chelating agent's ability to bind to iron. These factors may include the pKa of the chelating agent compared to the wash pH, and the affinity of the chelating agent to bind with other metals, materials, or compositions in the wash.
Various embodiments may provide or employ a composition that comprises one or more chelating agents having a pKa that is less than the wash pH.

The nature of data set [2]: Calcium binding efficiency, logK(β110) (Table 1). To be noted: one metal, one ligand, no protons. The text has this: (§1) The binding efficiencies may be expressed as a binding constant. A binding constant (also called formation constant or stability constant) is an equilibrium constant for the formation of a complex in solution. It is a measure of the strength of the interaction between the reagents that come together to form the complex. As an example, various stains may comprise catechins as shown in Formula 13. In Table 1, the reaction between metals and ligands is described in terms of log K(β110). In this context, K, is the equilibrium constant for the reaction between ligands and metals. The higher K, the more metal is bound. This is illustrated in the following example. β, represents the binding efficiency and receives some subscripts (βmlh) to indicate how many metals (m), ligands (l), and protons (h) respectively are involved.

The nature of data set [3]: Iron binding efficiency, logK(β110) (Table 1). To be noted: one metal, one ligand, no protons.
Description: as §1

The compound `Oc1cc(O)c2c(c1)OC(c1ccc(O)c(O)c1)C(O)C2` (stereo not shown) [Catechin] returned a pKa in data set [1] of 8.7. Further, the “Ca^2+ logK(β110) (calcium binding efficiency)” value in data set [2] is 3.5; in data set [2] (listed as catechins), “about 3.5”. The entries for the “Fe (III) logK(β110) (iron binding efficiency)” value (shortened to “Fe (III) logK(β110)”) in data set [3] and in data set [3] (listed as catechins) were 19.2 and “about 19.2”, respectively.
With `CC(O)(P(=O)(O)O)P(=O)(O)O` [HEDP, 1-Hydroxyethylidene-1,1-diphosphonic acid, reference compound], the “Ca^2+ logK(β110) (calcium binding efficiency)” value in data set [2] is on record as 6.8. Besides, in data set [3], the “Fe (III) logK(β110)” value came out at 14.1.
In turn, `CC(C)c1cccc(=O)c(O)c1` [Hinokitiol, 2-Hydroxy-6-(propan-2-yl)cyclohepta-2,4,6-trien-1-one] showed a pKa in data set [1] of approximately 7. Moreover, the “Ca^2+ logK(β110) (calcium binding efficiency)” value in data set [2] is 2.2. Also, the “Fe (III) logK(β110)” value in data set [3] stood at 12.9.
On the same counts, the results for `O=c1cccccc1O` [Tropolone, 2-Hydroxycyclohepta-2,4,6-trien-1-one] are 6.7, 3.1 and 10.5.

The values are drawn from patent US20250011686A1, “BIODEGRADABLE CHELATING AGENTS AND METHODS FOR FABRIC CARE” (The Procter & Gamble Company, priority 2023, published 2025).
